Key:
[1] = biological target: T1, human MR1-β2-microglobulin (β2m) complex (Homo sapiens, UniProt Q95460); experiment: In vitro refolding of MR1-β2m co-complex with ligand; type: binding; settings: ligand added to refolding buffer
T1 construct: plasmids encoding for the extracellular domains of MR1, β2m, and the AF-7 TCRα and TCRβ chains; made in house
Excerpt: We then assessed the capacity of RF and its catabolites to be loaded within recombinant MR1. The human MR1-β2-microglobulin (β2m) complex can only co-purify when the MR1 Ag-binding pocket is occupied with ligand ([Kjer-Nielsen et al., 2012]). […] Next, we examined how these catabolites could stabilize MR1 using an in vitro MR1-Ag complexes through thermostability assay ([Eckle et al., 2014]) (Fig. 1H). Here, the half-maximum melting temperatures (Tm50) of the stable complexes MR1-5-OP-RU and MR1-Ac-6-FP were 58.65 ± 0.42 and 62.12 ± 0.37 °C; respectively, consistent with previous values ([Eckle et al., 2014]). […] Thus, the binding of these ligands stabilizes the MR1 protein but to a lower extent in comparison to MR1-5-OP-RU and MR1-Ac-6-FP (Fig. 1H).
Escherichia coli BL21(DE3) cells were transformed with plasmids encoding for the extracellular domains of MR1, β2m, and the AF-7 TCRα and TCRβ chains ([Kjer-Nielsen et al., 2012]; [Patel et al., 2013]; [Wang et al., 2022a]). The proteins were then expressed, and the inclusion bodies were purified, cleaned, and used for refolding. For both MR1 and AF-7 TCR, inclusion bodies were refolded through rapid dilution overnight as previously mentioned ([Keller et al., 2017]). To refold MR1 with ligands, 58 mg MR1 inclusion bodies along with 30 mg of β2m inclusion bodies were placed in a 500 ml of refold buffer consisting of 0.1 M Tris pH 8.0, 5 M of urea, 2 mM EDTA, 2.5 mM oxidized glutathione, 20 mM reduced glutathione and 0.4 M of L-arginine for 16 h at 4° C. Ligands were dissolved in dilute NaOH and added directly into the refolding buffer. […] The refolded MR1-ligand complex was dialyzed against 10 mM Tris pH 8.0 overnight and purified using size-exclusion (Superdex 200, GE Healthcare) and anion-exchange (HiTrapQ, GE Healthcare) chromatography techniques ([Awad et al., 2020a]).

[2] = tested on: C1R.MR1 cells; experiment: Intracellular total folded MR1 by flow cytometry (8F2.F9); type: cell-based; settings: C1R.MR1, 100 μM, 16 h
[3] = tested on: SKW-3 cells expressing AF-7 (TRAV1-2/TRBV6-1) TCR; experiment: MAIT cell activation assay, SKW-3 AF-7 TCR co-cultured with C1R.MR1; type: cell-based; settings: for 5-OP-RU-induced activation (CD69): SKW-3 AF-7, in presence of 1 nM 5-OP-RU; for CD69 surface expression (activation): SKW-3 AF-7, ligand alone
Protocol: Next, we explored whether RF catabolites could activate SKW-3 cells expressing two different MAIT TCRs. Distinct responses of T cells expressing TCRs with varying TRBV chain usage reinforces the role of Vβ in modulating MAIT responses to various ligands ([Chancellor et al., 2023]; [Gherardin et al., 2016]; [Seneviratna et al., 2022]).The surface expression of CD69 was measured as a marker for activation of cells expressing the AF-7 (TRAV1-2/TRBV6-1) or MBV28 (TRAV1-2/TRBV28) TCRs after co-culture with C1R.MR1 cells and the ligands.
C1R.MR1 cells (1 x 10^5) were initially stained with CTV for 15 minutes and then incubated with RF catabolites for 20 h. […] Cells were subsequently stained with PE-Cy7-conjugated anti-CD69 (BD; 1:100) and PE-labelled anti-MR1 (26.5 clone; BD; 1:100), before analysis on LSRFortessa (BD Biosciences) flow cytometer. Activation of SKW-3-MAIT cells was reflected by the cell-surface CD69 expression.

[4] = tested on: C1R.MR1^R9H cells; experiment: Cell surface MR1 R9H quantification, C1R.MR1^R9H; type: cell-based
Excerpt: We then tested the effect of the RF catabolites on the expression of two mutant versions of MR1 termed MR1^R9H ([Howson et al., 2020]) and MR1^K43A ([Reantragoon et al., 2013]). First, we tested the MR1^R9H mutant ([Howson et al., 2020]) which represents a rare, natural human polymorph. […] When C1R. […] Next, we tested sought to understand how the previously characterised Lys43A mutation affects ligand binding. […] While this is in line with the ability of these ligands to bind MR1, the reason for MR1^K43A cell surface accumulation is less clear. The most likely explanation is that these ligands bind ER-resident MR1^K43A, in line with our data using wild-type MR1; however, because the K43A mutation results in spontaneous MR1 surface egress, the presence of these stabilising ligands promotes enhanced trafficking and/or retention at the cell surface. We cannot rule out however that the ligands may also bind directly to surface MR1^K43A and slow down the recycling from cell surface.
The level of MR1 expressed on the cell surface was measured after the exposure to the investigated ligands as previously described ([Awad et al., 2020a]; [Wang et al., 2022a]). […] The PE fluorescence intensity reflects the surface MR1 level. The data was acquired with an LSRFortessa X-20 (BD Biosciences) and Diva software (BD Biosciences) and analyzed using FlowJo software (BD Biosciences).

[5] = tested on: THP-1.MR1 cells; experiment: Competition with Ac-6-FP-induced MR1 upregulation, THP-1.MR1; type: cell-based; settings: 1–200 μM overnight, then 10 μM Ac-6-FP 3 h
[6] = tested on: MAIT cells in human PBMC; experiment: Primary MAIT activation (CD69) in PBMCs; type: cell-based; settings: 16 h, co-incubation with 5-OP-RU
[7] = tested on: MAIT cells in human PBMC; experiment: MAIT cell proliferation in CTV-labeled PBMCs; type: cell-based; settings: day 7, 5-OP-RU 10 μM, RF ligands 100 μM

T1 sequence (Q95460 23-302 limits assumed): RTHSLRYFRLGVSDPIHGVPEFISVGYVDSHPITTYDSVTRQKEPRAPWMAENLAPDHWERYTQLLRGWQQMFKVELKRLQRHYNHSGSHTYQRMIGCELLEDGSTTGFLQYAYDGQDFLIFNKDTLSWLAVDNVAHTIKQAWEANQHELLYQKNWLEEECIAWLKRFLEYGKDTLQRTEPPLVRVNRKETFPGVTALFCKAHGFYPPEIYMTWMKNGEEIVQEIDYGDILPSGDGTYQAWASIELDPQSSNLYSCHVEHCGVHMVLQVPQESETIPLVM
T1 sequence (P61769 21-119 partner): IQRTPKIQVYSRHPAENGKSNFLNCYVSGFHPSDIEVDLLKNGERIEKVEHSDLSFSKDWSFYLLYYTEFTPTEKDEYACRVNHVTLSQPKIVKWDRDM

Question: How did the “folding of the MR1-β2m co-complex in solution” value (“folding” below) [1] turn out when `O=c1nc2[nH]c3ccccc3nc-2c(=O)[nH]1` [Alloxazine, alloxazine] was run?
Answer: The value was “facilitated the correct folding”.

Question: What about the “total level of folded MR1 (intracellular staining with 8F2.F9)” value [2] of the same compound?
Answer: Its value is “also increased the total level of folded MR1”.

Question: For `Cc1cc2nc3c(=O)[nH]c(=O)nc-3n(C)c2cc1C` [Lumiflavin], which “folding” value [1] is on record?
Answer: Its value is “facilitated the correct folding”.

Question: And the “5-OP-RU-induced activation (CD69)” value [3]?
Answer: Its value is “slightly exaggerated”.

Question: And the “CD69 surface expression (activation)” value [3]?
Answer: The value was “minor increase in CD69”.

Question: Which results are given for `Cc1cc2nc3c(=O)[nH]c(=O)nc-3n(C[C@H](O)[C@H](O)[C@H](O)CO)c2cc1C` [RF, Riboflavin]?
Answer: folding of the MR1-β2m co-complex in solution [1]: did not sponsor refolding; MR1^R9H surface level [4]: did not deviate from the background level; effect on Ac-6-FP-induced cell surface upregulation of MR1 [5]: did not modulate; 5-OP-RU-induced activation (CD69) [3]: could not compete with 5-OP-RU; CD69 surface expression (activation) [3]: minor increase in CD69; competition with 5-OP-RU for MAIT activation (CD69) [6]: potent concentration-dependent competition

Question: For `Cc1cc2nc3[nH]c(=O)[nH]c(=O)c3nc2cc1C` [Lumichrome, 7,8-dimethylalloxazine], which “folding” value [1] is on record?
Answer: Its value is “facilitated the correct folding”.

Question: And the “total level of folded MR1 (intracellular staining with 8F2.F9)” value [2]?
Answer: Its value is “also increased the total level of folded MR1”.

Question: And the “5-OP-RU-induced activation (CD69)” value [3]?
Answer: Its value is “enhanced the 5-OP-RU-induced CD69 expression”.

Question: What about the “CD69 surface expression (activation)” value [3] of the same compound?
Answer: The value was “minor reductions in CD69”.

Question: What about the “MR1 expression on C1R.MR1 in co-culture” value ([3]; SKW-3 AF-7 co-culture with 5-OP-RU) of the same compound?
Answer: Its value is “dose-dependent reduction in MR1 expression”.

Question: What about the MAIT cell proliferation [7] of the same compound?
Answer: The MAIT cell proliferation was “significantly reduced MAIT cell proliferation”.

Question: What about the “competition with 5-OP-RU for MAIT activation (CD69)” value [6] of the same compound?
Answer: The value was “most potent competitor”.

— publication doi:10.1101/2025.07.20.665728 (bioRxiv, 2025)
